The conditions of this series: room temperature (20-35° C.), atmospheric pressure.

Read-outs that look alike come from different tables or passages of the source.

For benzalkonium-perchlorate [BNZ-ClO4], the ClO4 equilibrium conc. runs as follows: (matrix: deionized water) 0.20 mM; (matrix: ethanol) 231 mM; (matrix: salt water) 0.81 mM.

The values are drawn from patent US12195372B2 (priority 2018, dated 2025).
